Laboratory results: patent US10106544B2, “1,2-dihydro-3H-pyrrolo[1,2-C]imidazol-3-one derivatives and their use as antibacterial agents” (priority 2014, dated 2018)
≈ marks a conversion by molar mass, not a printed value.

How the values were obtained:
Experiment in all cases: Bacterial growth minimal inhibitory concentration (microdilution, cation-adjusted Mueller-Hinton Broth)
Type in all cases: cell-based
E. coli ATCC25922 = conditions: quinolone-sensitive strain; for MIC: Escherichia coli, ATCC25922, read-out: MIC for E. coli ATCC25922
Procedure, shortened: (§1)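 Broth microdilution in cation-adjusted Mueller-Hinton Broth per CLSI M7-A7, MIC in mg/L. K. pneumoniae A-651 is multiply resistant, including to quinolones. E. coli ATCC25922 and P. aeruginosa ATCC27853 are quinolone-sensitive.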

K. pneumoniae A-651 = conditions: multiply-resistant strain (in particular quinolone-resistant); for MIC: Klebsiella pneumoniae, A651, read-out: MIC for K. Pneumoniae A-651
Procedure, shortened: as §1

P. aeruginosa ATCC27853 = conditions: for MIC for P. aeruginosa ATCC27853: quinolone-sensitive strain; for MIC: Pseudomonas aeruginosa, ATCC27853, quinolone-sensitive strain, read-out: MIC for P. aeruginosa ATCC27853
Procedure, shortened: as §1

Structure (SMILES)	MIC (E. coli ATCC25922) [µg/mL]	MIC (K. pneumoniae A-651) [µg/mL]	MIC (P. aeruginosa ATCC27853) [µg/mL]	MIC for E. coli ATCC25922 (E. coli ATCC25922) [µg/mL]	MIC for K. Pneumoniae A-651 (K. pneumoniae A-651) [µg/mL]	MIC for P. aeruginosa ATCC27853 (P. aeruginosa ATCC27853) [µg/mL]
C[C@@](CCN1Cc2cc(C#CC#CC[C@]3(O)C[C@@H](CO)C3)cn2C1=O)(C(=O)NO)S(C)(=O)=O [Example 73, (R)-N-hydroxy-4-(6-(5-((1s,3R)-1-hydroxy-3-(hydroxymethyl)cyclobutyl)penta-1,3-diyn-1-yl)-3-oxo-1H-pyrrolo[1,2-c]imidazol-2(3H)-yl)-2-methyl-2-(methylsulfonyl)butanamide]				8	16	4
C[C@@](CCN1Cc2cc(C#CC#CC3(COC(=O)OCOP(=O)(O)O)CC3)cn2C1=O)(C(=O)NO)S(C)(=O)=O [Example 75, (R)-(1-((2-(4-(hydroxyamino)-3-methyl-3-(methylsulfonyl)-4-oxobutyl)-3-oxo-2,3-dihydro-1H-pyrrolo[1,2-c]imidazol-6-yl)buta-1,3-diyn-1-yl)cyclopropyl)methyl((phosphonooxy)methyl)carbonate]				1	2	2
CC(C)(O)c1ncc(C#Cc2cc3n(c2)C(=O)N(CC[C@](C)(C(=O)NO)S(C)(=O)=O)C3)s1 [Example 76, (R)-N-hydroxy-4-(6-((2-(2-hydroxypropan-2-yl)thiazol-5-yl)ethynyl)-3-oxo-1H-pyrrolo[1,2-c]imidazol-2(3H)-yl)-2-methyl-2-(methylsulfonyl)butanamide]	1 (≈ 2.08 µM)	2 (≈ 4.16 µM)	2 (≈ 4.16 µM)			
C[C@@](CCN1Cc2cc(C#Cc3ccc(CNS(C)(=O)=O)cc3)cn2C1=O)(C(=O)NO)S(C)(=O)=O [Example 82, (R)-N-hydroxy-2-methyl-4-(6-((4-(methylsulfonamidomethyl)phenyl)ethynyl)-3-oxo-1H-pyrrolo[1,2-c]imidazol-2(3H)-yl)-2-(methylsulfonyl)butanamide]	0.5 (≈ 0.957 µM)	1 (≈ 1.91 µM)	1 (≈ 1.91 µM)			
C[C@@](CCN1Cc2cc(C#CC#CC3CN(C4COC4)C3)cn2C1=O)(C(=O)NO)S(C)(=O)=O [Example 83, (R)-N-hydroxy-2-methyl-2-(methylsulfonyl)-4-(6-((1-(oxetan-3-yl)azetidin-3-yl)buta-1,3-diyn-1-yl)-3-oxo-1H-pyrrolo[1,2-c]imidazol-2(3H)-yl)butanamide]	0.5 (≈ 1.05 µM)	0.5 (≈ 1.05 µM)	1 (≈ 2.11 µM)			

Second part, led by results:

MIC (E. coli ATCC25922) [µg/mL]	MIC (K. pneumoniae A-651) [µg/mL]	MIC (P. aeruginosa ATCC27853) [µg/mL]	Structure (SMILES)	MIC for E. coli ATCC25922 (E. coli ATCC25922) [µg/mL]	MIC for K. Pneumoniae A-651 (K. pneumoniae A-651) [µg/mL]	MIC for P. aeruginosa ATCC27853 (P. aeruginosa ATCC27853) [µg/mL]
8	16	2	C[C@@](CCN1Cc2cc(C#Cc3ccc(CN4CCC(N)CC4)cc3)cn2C1=O)(C(=O)NO)S(C)(=O)=O.Cl.Cl [Example 77, (R)-4-(6-((4-((4-aminopiperidin-1-yl)methyl)phenyl)ethynyl)-3-oxo-1H-pyrrolo[1,2-c]imidazol-2(3H)-yl)-N-hydroxy-2-methyl-2-(methylsulfonyl)butanamide dihydrochloride]			
1 (≈ 1.89 µM)	2 (≈ 3.78 µM)	1 (≈ 1.89 µM)	C[C@@](CCN1Cc2cc(C#Cc3ccc(CN4CCC(O)CC4)cc3)cn2C1=O)(C(=O)NO)S(C)(=O)=O [Example 80, (R)-N-hydroxy-4-(6-((4-((4-hydroxypiperidin-1-yl)methyl)phenyl)ethynyl)-3-oxo-1H-pyrrolo[1,2-c]imidazol-2(3H)-yl)-2-methyl-2-(methylsulfonyl)butanamide]			
8 (≈ 15.6 µM)	16 (≈ 31.2 µM)	2 (≈ 3.89 µM)	C[C@@](CCN1Cc2cc(C#Cc3ccc(N4CCC(N)CC4)cc3)cn2C1=O)(C(=O)NO)S(C)(=O)=O [Example 81, (R)-4-(6-((4-(4-aminopiperidin-1-yl)phenyl)ethynyl)-3-oxo-1H-pyrrolo[1,2-c]imidazol-2(3H)-yl)-N-hydroxy-2-methyl-2-(methylsulfonyl)butanamide]			
